Results on 19 molecules are retold here after US4618682A, “2-amino-4,5-dihydro-1H-imidazole-1-carboxanilides” (McNeilab, Inc., priority 1985, dated 1986).

Assay [1] concerns Spontaneously hypertensive rat. The assay is described as follows: Rodent Antihypertensive Screen (arterial pressure and heart rate, aortic cannula). Type of assay: in vivo, adult spontaneously hypertensive rats (Charles River). As to conditions: for Duration / Effect on heart rate / Max. decr. in MAP: spontaneously hypertensive rat; for antihypertensive activity compared with corresponding rearranged N-aryl-N'-(4,5-dihydro-1H-imidazol-2-yl) ureas IV: versus corresponding ureas IV. The source says: This test evaluates compounds for effects on arterial pressure and heart rate. In this test, the arterial pressure of adult spontaneously hypertensive rats (Charles River) is monitored directly via an aortic cannula. Rats are anesthetized with an inhalation anesthetic (methoxyflurane). The left carotid artery is isolated and cannulated. The tip of the cannula is advanced to the aorta and the cannula is exteriorized behind the neck at the level of the scapula. Animals are placed in individual cages and allowed to recover from the anesthetic and are kept unrestrained. The arterial cannula is connected to the pressure transducer which is attached to the recorder. Heart rate is determined from the arterial pressure recording. The test compounds are administered either orally (p.o.) by gavage or by intraperitoneal (i.p.) injection. The arterial pressure and heart rate are monitored for a minumum of 24 hours. A test compound is considered to be active as an antihypertensive agent if the mean arterial pressure (MAP) indicates a fall of >15 mm of Hg. Each animal serves as his own control. The results of this test employing at least 3 rats per dose level for each compound and performed with various compounds of the present invention are shown in Table I.

Assay [2] deals with Gastric fistula rat. The assay is described as follows: acute gastric fistula rat test (antisecretory screen). Type of assay: in vivo, Female Sprague-Dawley rats. As to conditions: for inhibition in vivo at 20 mg/kg: intraduodenal, 20 mg/kg I.D., read-out: % Inhibition of gastric secretion; for ED50: po, 1 hr. As to the method: The principal antisecretory screen is the acute gastric fistula rat test which is carried out as follows: Female Sprague-Dawley rats are used for this study. The weights range from 125-250 gms; however, weights in any given test have a range of ±20 gms. The rats are fasted 24 hours before testing, water is given ad lib. At the time of fasting, the rats are placed in individual cages with wide mesh bottoms. This eliminates the problem of cannibalism and coprophagia. On the day of testing, the rats are weighed beforehand to determine the weight range and to allow for even distribution. Surgery is carried out under light ether anesthesia. As soon as the rat is anesthetized, its teeth are removed using a small pinch pliers. A midline incision is made on the abdomen about 11/2 cm long and the stomach is exposed. If, at this point, the stomach is filled with food or fecal material, the rat is discarded except for orally administered rats. In this case, the stomach contents are gently squeezed into the duodenum. Using a 4-0 polyester fiber suture, a purse string stitch is placed on the fundic portion of the stomach taking care to avoid any blood vessels in the area. A small nick is made into the stomach in the center of the purse string and a cannula, consisting of a small vinyl tube with a flange on one end, is put into the stomach and the purse string is closed tightly around the flange. Immediately following this, the rat is dosed intraduodenally using a volume of 0.5 ml per 100 gm body weight. The abdominal wall and skin are closed simultaneously with three to four 18 mm wound clips. The rat is then placed in a box containing a longitudinal slit which allows the cannula to hang freely and the rat is able to move about unencumbered. At the completion of the procedure, the time is marked 0 minutes. The rat is allowed to stabilize for 30 minutes, at which time the collection tube is discarded and replaced with a clean collection tube to receive the gastric juice. Only a one-hour collection is made for a screening study. In evaluation studies, one- and two-hour collections are made. At the end of the study, the cannula is pulled out and the rat is sacrificed. The gastric contents collected are drained into a centrifuge tube and centrifuged to pack down the sediment. The volume is read and a 1 ml aliquot of the supernatant is put into a beaker containing distilled water and titrated to pH 7 using 0.01 N NaOH. Mean values are determined for volume, titratable acid and total acid output where volume equals total ml of gastric juice minus sediment, titratable acid (mEq/1) equals amount of 0.01 N NaOH needed to titrate the acid to pH 7 times 10 and total acid output equals titratable acid times volume. Results are reported in percent inhibition over control values. In studies using oral administration, the drugs are dosed in a volume of 1 ml per 100 gm body weight one hour before surgery (pretreatment equals 90 minutes). In subcutaneous studies, the drug may be given immediately after the surgical procedure (pretreatment equals 30 minutes) or after the 30-minute stabilization period when the collection tube is changed (pretreatment time equals 0 minutes). The volume used in subcutaneous studies is 0.2 ml per 100 gm body weight.

Counter-ions that a name gives are not always drawn.

Turning to `Cl.NC1=NCCN1C(=O)Nc1c(Cl)cccc1Cl` [Example 1, 2-Amino-N-(2,6-dichlorophenyl)-4,5-dihydro-1H-imidazole-1-carboxamide Monohydrochloride], in assay [1] (35 mg/kg p.o.), the Duration came out at 0.5 h, the “Effect on heart rate” value was -48 beats/min and the “Max. decr. in MAP” value stood at 32 mm Hg. Besides, in assay [1], the “antihypertensive activity compared with corresponding rearranged N-aryl-N'-(4,5-dihydro-1H-imidazol-2-yl) ureas IV” value is “significantly less antihypertensive activity”. In addition, the inhibition in vivo at 20 mg/kg in assay [2] came out at 62%.

In general, ED50 refers to the dose that gives a 50% effect, or the effect in half of the subjects. Low readings indicate an effect at a small dose, high ones a need for a large dose. As to `Cc1ccc(NC(=O)N2CCN=C2N)cc1` [Example 2, 2-Amino-4,5-dihydro-N-(4-methylphenyl)-1H-imidizole-1-carboxamide Monohydrochloride Hydrate (4:1)], in assay [1] (35 mg/kg p.o.), the Duration came out at 6.0 h, the “Effect on heart rate” value is -162 beats/min and the “Max. decr. in MAP” value was determined as 54 mm Hg. Further, in assay [1], the “antihypertensive activity compared with corresponding rearranged N-aryl-N'-(4,5-dihydro-1H-imidazol-2-yl) ureas IV” value is recorded as “more potent antihypertensive activity”. Besides, in assay [2], the inhibition in vivo at 20 mg/kg turned out to be 99% and the ED50 came to 4.6 mg/kg.

With `NC1=NCCN1C(=O)Nc1ccccc1Cl` [Example 3, 2-Amino-N-(2-chlorophenyl)-4,5-dihydro-1H-imidazole-1-carboxamide Monohydrochloride], in assay [1] (35 mg/kg p.o.), the Duration worked out at 2.0 h, the “Effect on heart rate” value is reported as -77 beats/min and the “Max. decr. in MAP” value amounted to 35 mm Hg. Also, in assay [2], the inhibition in vivo at 20 mg/kg stood at 82%.

For `COc1ccc(NC(=O)N2CCN=C2N)cc1OC` [Example 4, 2-Amino-N-(3,4-dimethoxyphenyl)-4,5-dihydro-1H-imidazole-1-carboxamide Monohydrochloride Hydrate (4:1)], in assay [1] (100 mg/kg p.o.), the Duration is 11 h, the “Effect on heart rate” value is -215 beats/min and the “Max. decr. in MAP” value came to 47 mm Hg.

With `Cc1cccc(C)c1NC(=O)N1CCN=C1N.Cl` [Example 5, 2-Amino-N-(2,6-dimethylphenyl)-4,5-dihydro-1H-imidazole-1-carboxamide Monohydrochloride], in assay [1] (35 mg/kg p.o.), the Duration was 1.0 h, the “Effect on heart rate” value was -27 beats/min and the “Max. decr. in MAP” value is 23 mm Hg. The “antihypertensive activity compared with corresponding rearranged N-aryl-N'-(4,5-dihydro-1H-imidazol-2-yl) ureas IV” value in assay [1] is listed as “significantly less antihypertensive activity”. In addition, the inhibition in vivo at 20 mg/kg in assay [2] was 88%.

Take `NC1=NCCN1C(=O)Nc1cc(Cl)cc(Cl)c1` [Example 6, 2-Amino-N-(3,5-dichlorophenyl)-4,5-dihydro-1H-imidazole-1-carboxamide Monohydrochloride Hydrate (16:1)]: in assay [1] (35 mg/kg p.o.), the Duration amounted to 1.0 h, the “Effect on heart rate” value is listed as -21 beats/min and the “Max. decr. in MAP” value was found to be 22 mm Hg. Further, in assay [2], the inhibition in vivo at 20 mg/kg is 75% and the 50% effective dose (ED50) stood at 22.3 mg/kg.

Regarding `Cl.NC1=NCCN1C(=O)Nc1cc(Cl)ccc1Cl` [Example 7, 2-Amino-N-(2,5-dichlorophenyl)-4,5-dihydro-1H-imidazole-1carboxamide Monohydrochloride], in assay [1] (35 mg/kg p.o.), the Duration worked out at 1.0 h, the “Effect on heart rate” value is -48 beats/min and the “Max. decr. in MAP” value amounted to 37 mm Hg.

Consider `Cl.NC1=NCCN1C(=O)Nc1ccc(Cl)cc1Cl` [Example 9, 2-Amino-N-(2,4-dichlorophenyl)-4,5-dihydro-1H-imidazole-1carboxamide Monohydrochloride], for which, in assay [1] (35 mg/kg p.o.), the Duration was found to be 2.0 h, the “Effect on heart rate” value is recorded as -49 beats/min and the “Max. decr. in MAP” value was found to be 33 mm Hg. Besides, in assay [2], the inhibition in vivo at 20 mg/kg was 71% and the ED50 was 14.8 mg/kg.

With `Cl.NC1=NCCN1C(=O)Nc1cccc(Cl)c1Cl` [Example 10, 2-Amino-N-(2,3-dichlorophenyl)-4,5-dihydro-1H-imidazole-1-carboxamide Monohydrochloride], in assay [1] (35 mg/kg p.o.), the Duration worked out at 1.0 h, the “Effect on heart rate” value is listed as -66 beats/min and the “Max. decr. in MAP” value worked out at 19 mm Hg. Further, the inhibition in vivo at 20 mg/kg in assay [2] is 70%.

In the case of `Cl.NC1=NCCN1C(=O)Nc1cccc(Cl)c1.O` [Example 11, 2-Amino-N-(3-chlorophenyl)-4,5-dihydro-1H-imidazole-1carboxamide Monohydrochloride Monohydrate], in assay [1] (35 mg/kg p.o.), the Duration turned out to be 0.5 h, the “Effect on heart rate” value is listed as -26 beats/min and the “Max. decr. in MAP” value turned out to be 20 mm Hg. Further, in assay [2], the inhibition in vivo at 20 mg/kg worked out at 77% and the ED50 came out at 14.2 mg/kg.

`Cl.NC1=NCCN1C(=O)Nc1c(Cl)cc(Cl)cc1Cl` [Example 12, 2-Amino-4,5-dihydro-N-(2,4,6-trichlorophenyl)-1H-imidazole-1-carboxamide Monohydrochloride]: in assay [1] (35 mg/kg p.o.), the Duration turned out to be 0.5 h, the “Effect on heart rate” value is -39 beats/min and the “Max. decr. in MAP” value is reported as 18 mm Hg. Besides, the inhibition in vivo at 20 mg/kg in assay [2] was determined as 97%.

Turning to `Cc1cccc(Cl)c1NC(=O)N1CCN=C1N` [Example 15, 2-Amino-N-(2-chloro-6-methylphenyl)-4,5-dihydro-1H-imidazole-1-carboxamide Monohydrochloride Hydrate (8:1)], the inhibition in vivo at 20 mg/kg in assay [2] amounted to 77%.

As for `NC1=NCCN1C(=O)Nc1c(Br)cccc1Br` [Example 16, 2-Amino-4,5-dihydro-N-(2,6-dibromophenyl)-1H-imidazole-1-carboxamide Monohydrochloride], the inhibition in vivo at 20 mg/kg in assay [2] was determined as 64%.

Turning to `CCc1cccc(C)c1NC(=O)N1CCN=C1N.Cl` [Example 17, 2-Amino-4,5-dihydro-N-(2-ethyl-6-methylphenyl)-1H-imidazole-1carboxamide Monohydrochloride], in assay [2], the inhibition in vivo at 20 mg/kg was 91% and it took a dose of 24.5 mg/kg to reach the 50% effect level (ED50).

Take `COc1cccc(NC(=O)N2CCN=C2N)c1` [Example 19, 2-Amino-4,5-dihydro-N-(3-methoxyphenyl)-1H-imidazole-1carboxamide Monohydrochloride Hydrate (5:1)]: the inhibition in vivo at 20 mg/kg in assay [2] is 74%.

Regarding `COc1ccc(NC(=O)N2CCN=C2N)cc1.Cl` [Example 20, 2-Amino-4,5-dihydro-N-(4-methoxyphenyl)-1H-imidazole-1carboxamide Monohydrochloride], in assay [1] (35 mg/kg p.o.), the Duration stood at 1.0 h, the “Effect on heart rate” value is recorded as -38 beats/min and the “Max. decr. in MAP” value was determined as 16 mm Hg.

For `NC1=NCCN1C(=O)Nc1ccccc1` [Example 23, 2-Amino-4,5-dihydro-N-phenyl-1H-imidazole-1-carboxamide Monohydrochloride Hydrate (5:3)], in assay [2], the inhibition in vivo at 20 mg/kg turned out to be 92%.

In the case of `Cc1ccccc1NC(=O)N1CCN=C1N` [Example 24, 2-Amino-4,5-dihydro-N-(2-methylphenyl)-1H-imidazole-1-carboxamide Monohydrochloride], the inhibition in vivo at 20 mg/kg in assay [2] is 65%.

In the case of `Cl.NC1=NCCN1C(=O)Nc1ccccc1C(F)(F)F` [Example 25, 2-Amino-4,5-dihydro-N-(2-trifluoromethylphenyl)-1H-imidazole-1-carboxamide Monohydrochloride], in assay [1] (35 mg/kg p.o.), the Duration is 0.5 h, the “Effect on heart rate” value was -21 beats/min and the “Max. decr. in MAP” value is listed as 32 mm Hg.
